Values joined by “and” are separate entries in the source; they are usually repeats but may differ in a detail not shown here. Identical values can stand only once. Non-standard residues stand in square brackets, D forms with d. Residues, ends and D or L forms follow the SMILES beside them. No end group written: not given here.
Legend:
EV71 [1] = experiment: Anti-EV71 efficiency in Huh7.5 cells, viral RNA by qRT-PCR; format: cell-based, enterovirus 71; conditions: read-out: IC50 against EV71 by qRT-PCR
Source text: […]

EV71 [2] = experiment: Anti-EV71 efficiency in Vero cells, viral RNA by qRT-PCR; format: cell-based, enterovirus 71; conditions: read-out: IC50 against EV71 by qRT-PCR
Source text: […]

CVB5 = experiment: Anti-CVB5 effect in RD cells, qRT-PCR; format: cell-based, Coxsackievirus B5; conditions: Example 20, read-out: IC50 against CVB5
Method: • (1) […] were plated in a 24-well cell plate. • (2) After the cells reached 70%-80% confluence, the MEM medium containing 10% serum was replaced with a MEM medium containing 2% serum (0.5 ml/well).

CVB3 = experiment: Anti-CVB3 effect in Vero cells, qRT-PCR; format: cell-based, Coxsackievirus B3; conditions: text of Example 21, read-out: IC50 against CVB3
Method: • (1) Vero cells were plated in a 24-well cell plate. • (2) After the cells reached 70%-80% confluence, the MEM medium containing 10% serum was replaced with a MEM medium containing 2% serum and CVB3 virus, 0.5 ml per well. MOI of the virus was 0.01. […]

CVA6 = experiment: Anti-CVA6 effect in Vero cells, qRT-PCR; format: cell-based, Coxsackievirus A6; conditions: for Virus inhibition rate (%): CVA6 MOI 0.01, Vero cells, 24 h, qRT-PCR
Method: • (1) Vero cells were plated in a 24-well cell plate. • (2) After the cells reached 70%-80% confluence, the MEM medium containing 10% serum was replaced with a MEM medium containing 2% serum and CVA6 virus, 0.5 ml per well. MOI of the virus was 0.01. The wells without CVA6 virus was set as control group. • (3) After 1 h, […], respectively. • (4) Samples were collected 24 hours after virus infection, and RNA was extracted with total RNA extraction kit as follows. • (5) The supernatant in the wells was discarded, then 350 μl of TRK Lysis Buffer was added to each well and the plate was shaken on the shaker for 5 minutes. • (6) 350 μl of 70% ethanol (DEPC-treated) was added to the well and the plate was shaken on the shaker for 5 minutes. • (7) The mixture in the well was transferred to a RNA extraction column and centrifuged at 12000 g for 1 min. • (8) The solution collected in the recovery tube was added back to the column and centrifuged at 12000 g for 1 min. • (9) RNA washing buffer 1 was added to the column and centrifuged at 12,000 g for 30 s. • (10) RNA washing buffer 2 was added to the column and centrifuged at 12,000 g for 1 min. • (11) Step (10) was repeated once. • (12) The column was centrifuged at 12,000 g for 2 min to completely remove residual RNA washing buffer. • (13) 50 μl DEPC-treated H2O was added to the column and centrifuge at 12,000 g for 2 min. • (14) 2 μl RNA sample was used according to one step qRT-PCR kit for fluorescence quantification experiment.

EV71 [3] = experiment: Antiviral activity against EV71 in mice, virus copies in lung by qRT-PCR; format: in vivo, ICR mice
Source text: • (1) 10 2-day-old ICR mice were randomly divided into two groups, 5 in each group.

RRRRRRRREEVRQYCRDQ [P2]
IC50 (EV71 [1]): 1840 nM
IC50 (EV71 [2]): 1960 nM

YGRKKRRQRRRGSGEAVREYCK [BP8]
IC50 (CVB5): 1540 nM
IC50 (CVB3): 4120 nM

CC(=O)N[C@H](CCCNC(=N)N)C(=O)N[C@H](CS)C(=O)N[C@H](Cc1ccc(O)cc1)C(=O)N[C@H](CCC(N)=O)C(=O)N[C@H](CCCNC(=N)N)C(=O)N[C@@H](C(=O)N[C@H](CCC(=O)O)C(=O)N[C@H](CCC(=O)O)C(=O)N1CCC[C@@H]1C(=O)N1CCC[C@@H]1C(=O)N[C@H](CCCNC(=N)N)C(=O)N[C@H](CCCNC(=N)N)C(=O)N[C@H](CCCNC(=N)N)C(=O)N[C@H](CCC(N)=O)C(=O)N[C@H](CCCNC(=N)N)C(=O)N[C@H](CCCNC(=N)N)C(=O)N[C@H](CCCCN)C(=O)N[C@H](CCCCN)C(=O)N[C@H](CCCNC(=N)N)C(=O)NCC(=O)N[C@H](Cc1ccc(O)cc1)C(N)=O)C(C)C [ER-DRI] (Ac-[dR][dC][dY][dQ][dR][dV][dE][dE][dP][dP][dR][dR][dR][dQ][dR][dR][dK][dK][dR]G[dY]-NH2)
Virus inhibition rate (%) (CVA6; 0.625 μM): 71.8% and 74.9% and 67.5%
Virus inhibition rate (%) (CVA6; 2.15 μM): 72.6% and 85.3% and 90.4%
Virus inhibition rate (%) (CVA6; 2.5 μM): 91.3% and 93.4% and 91.7%
Virus inhibition rate (%) (CVA6; 5 μM): 94.3% and 94.9% and 96.4%
Virus inhibition rate (%) (CVA6; 10 μM): 91.4% and 97.8% and 97.9%
effect on CVA6 replication, in words (CVA6; Vero cells): able to inhibit the replication of CVA6
IC50 (CVA6; Vero cells, read-out: IC50 against CVA6): < 625 nM
EV71 viral load in mouse lung, in words (EV71 [3]; 10 mg/kg i.p. every 12 h for 5 days vs PBS): can significantly reduce the viral load of EV71 in the mouse lung
Number of virus copy in lung tissue (Copies/g) (EV71 [3]; 2-day-old ICR mice, EV71 i.p., 10 mg/kg i.p. every 12 h for 5 days, individual animals, 10 mg/kg): 294534 Copies/g and 484192 Copies/g and 2956937 Copies/g and 549759 Copies/g and 116302 Copies/g

Source: patent publication US11999806B2, “Broad-spectrum polypeptide against enterovirus and application thereof” (WUHAN INSTITUTE OF VIROLOGY, CHINESE ACADEMY OF SCIENCES, priority 2018, dated 2024)
